The target in the assay is T1, Human ATX protein (Homo sapiens, UniProt Q13822).
T1 construct: made in house
The experiment in a line: ATX biochemical FRET assay with FS-3 substrate. To be noted: ATX 1.0 μg/mL, 30 minutes pre-incubation, 2 hours at room temperature. The method in brief: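 Enzyme at 1.0 μg/mL final, pre-incubated with compound (10-point, 3-fold series) for 30 min at RT in Tris pH 7.4 buffer with NaCl, KCl, CaCl2, MgCl2 and 1 mg/mL fatty-acid-free BSA. After FS-3 addition, 2 h at RT protected from light; fluorescence at 485/538 nm.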

Where [1] appears, read: FRET substrate FS-3 2 μM, read-out: IC50.

Like-named read-outs stand apart in the source and are kept apart here. Bounds are passed on as bounds.

With `CC[C@H]1CC[C@@H](Oc2ccc3ccc([C@@H](C)N[C@H]4CC[C@@H](C(=O)O)CC4)cc3c2C(F)(F)F)CC1` [Example 135b, cis-4-(((R)-1-(7-((cis-4-ethylcyclohexyl)oxy)-8-(trifluoromethyl)naphthalen-2-yl)ethyl)amino)cyclohexanecarboxylic acid], the IC50 (in general, the point on the concentration scale where inhibition reaches its midpoint) under setting [1] is no more than 250 nM.
For the molecule `C[C@H](N[C@H]1CC[C@@H](C(=O)O)CC1)c1ccc2ccc(O[C@H]3CC[C@@H](C(F)(F)F)CC3)c(C(F)(F)F)c2c1` [Example 136a, cis-4-(((S)-1-(8-(trifluoromethyl)-7-((cis-4-(trifluoromethyl)cyclohexyl)oxy)naphthalen-2-yl)ethyl)amino)cyclohexanecarboxylic acid], the IC50 under setting [1] was no more than 100 nM.
The same measure, in the same setting: in the case of `C[C@@H](N[C@H]1CC[C@@H](C(=O)O)CC1)c1ccc2ccc(O[C@H]3CC[C@@H](C(F)(F)F)CC3)c(C(F)(F)F)c2c1` [Example 136b, cis-4-(((R)-1-(8-(trifluoromethyl)-7-((cis-4-(trifluoromethyl)cyclohexyl)oxy)naphthalen-2-yl)ethyl)amino)cyclohexanecarboxylic acid] it was no more than 250 nM.
Under “IC50, FRET substrate FS-3 2 μM”, `C[C@@H](c1ccc2ccc(O[C@H]3CC[C@@H](C(F)(F)F)CC3)c(C(F)(F)F)c2c1)N1C2CCCC1CC(C(=O)O)C2` (stereo partly drawn) [Example 137a, 9-((S)-1-(8-(trifluoromethyl)-7-((cis-4-(trifluoromethyl)cyclohexyl)oxy)naphthalen-2-yl)ethyl)-9-azabicyclo[3.3.1]nonane-3-carboxylic acid] displayed an IC50 of no more than 100 nM.
In turn, `C[C@H](c1ccc2ccc(O[C@H]3CC[C@@H](C(F)(F)F)CC3)c(C(F)(F)F)c2c1)N1C2CCCC1CC(C(=O)O)C2` (stereo partly drawn) [Example 137b, 9-((R)-1-(8-(trifluoromethyl)-7-((cis-4-(trifluoromethyl)cyclohexyl)oxy)naphthalen-2-yl)ethyl)-9-azabicyclo[3.3.1]nonane-3-carboxylic acid] registered an IC50 (IC50, FRET substrate FS-3 2 μM) of no more than 100 nM.
In the case of `C[C@H]1CC[C@@H](Oc2ccc3cc(F)c(CN4C5CCCC4CC(C(=O)O)C5)cc3c2C(F)(F)F)CC1` (stereo partly drawn) [Example 138, 9-((3-fluoro-7-((cis-4-methylcyclohexyl)oxy)-8-(trifluoromethyl)naphthalen-2-yl)methyl)-9-azabicyclo[3.3.1]nonane-3-carboxylic acid], the IC50 (IC50, FRET substrate FS-3 2 μM) is no more than 250 nM.
In the case of `CC(c1cc2c(C(F)(F)F)c(O[C@H]3CC[C@@H](C)CC3)ccc2cc1F)N1C2CCC1CC(C(=O)O)C2` (stereo partly drawn) [Example 139, 8-(1-(3-fluoro-7-((cis-4-methylcyclohexyl)oxy)-8-(trifluoromethyl)naphthalen-2-yl)ethyl)-8-azabicyclo[3.2.1]octane-3-carboxylic acid], where the note is “IC50, FRET substrate FS-3 2 μM”, the IC50 was no more than 100 nM.
In the case of `CC(c1cc2c(C(F)(F)F)c(O[C@H]3CC[C@@H](C(F)(F)F)CC3)ccc2cc1F)N1C2CCC1CC(C(=O)O)C2` (stereo partly drawn) [Example 140, 8-(1-(3-fluoro-8-(trifluoromethyl)-7-((cis-4-(trifluoromethyl)cyclohexyl)oxy)naphthalen-2-yl)ethyl)-8-azabicyclo[3.2.1]octane-3-carboxylic acid], the IC50 (IC50, FRET substrate FS-3 2 μM) is no more than 100 nM.
For `O=C(O)C1CC2CCC(C1)N2Cc1cc2c(C(F)(F)F)c(O[C@H]3CC[C@@H](C(F)(F)F)CC3)ccc2cc1F` (stereo partly drawn) [Example 141, 8-((3-fluoro-8-(trifluoromethyl)-7-((cis-4-(trifluoromethyl)cyclohexyl)oxy)naphthalen-2-yl)methyl)-8-azabicyclo[3.2.1]octane-3-carboxylic acid], the 50% inhibitory concentration (IC50) (IC50, FRET substrate FS-3 2 μM) is no more than 100 nM.
In the case of `CC(N[C@H]1CC[C@@H](C(=O)O)CC1)c1ccc2ccc(O[C@H]3CC[C@@H](C)CC3)c(C(F)(F)F)c2c1` (stereo partly drawn) [Example 142, cis-4-((1-(7-((cis-4-methylcyclohexyl)oxy)-8-(trifluoromethyl)naphthalen-2-yl)ethyl)amino)cyclohexanecarboxylic acid], the IC50 under setting [1] was no more than 100 nM.
The same measure, in the same setting: with `CC(N[C@H]1CC[C@H](C(=O)O)CC1)c1ccc2ccc(O[C@H]3CC[C@@H](C(F)(F)F)CC3)c(C(F)(F)F)c2c1` (stereo partly drawn) [Example 143, trans-4-((1-(8-(trifluoromethyl)-7-((cis-4-(trifluoromethyl)cyclohexyl)oxy)naphthalen-2-yl)ethyl)amino)cyclohexanecarboxylic acid] the figure was no more than 500 nM.
In turn, `CC[C@H]1CC[C@@H](Oc2ccc3ccc([C@H](C)N4C5CCC4CC(C(=O)O)C5)cc3c2C(F)(F)F)CC1` (stereo partly drawn) [Example 144a, 8-((S)-1-(7-((cis-4-ethylcyclohexyl)oxy)-8-(trifluoromethyl)naphthalen-2-yl)ethyl)-8-azabicyclo[3.2.1]octane-3-carboxylic acid] displayed an IC50 (IC50, FRET substrate FS-3 2 μM) of no more than 500 nM.
Molecule `CC[C@H]1CC[C@@H](Oc2ccc3ccc([C@@H](C)N4C5CCC4CC(C(=O)O)C5)cc3c2C(F)(F)F)CC1` (stereo partly drawn) [Example 144b, 8-((R)-1-(7-((cis-4-ethylcyclohexyl)oxy)-8-(trifluoromethyl)naphthalen-2-yl)ethyl)-8-azabicyclo[3.2.1]octane-3-carboxylic acid] showed an IC50 (IC50, FRET substrate FS-3 2 μM) of no more than 100 nM.
As for `CCC(N[C@H]1CC[C@@H](C(=O)O)CC1)c1ccc2ccc(O[C@H]3CC[C@@H](CC)CC3)c(C(F)(F)F)c2c1` (stereo partly drawn) [Example 145, cis-4-((1-(7-((cis-4-ethylcyclohexyl)oxy)-8-(trifluoromethyl)naphthalen-2-yl)propyl)amino)cyclohexanecarboxylic acid], the IC50 under setting [1] was no more than 100 nM.
On to `CCC(N[C@H]1CC[C@@H](C(=O)O)CC1)c1ccc2ccc(O[C@H]3CC[C@@H](C)CC3)c(C(F)(F)F)c2c1` (stereo partly drawn) [Example 146, cis-4-((1-(7-((cis-4-methylcyclohexyl)oxy)-8-(trifluoromethyl)naphthalen-2-yl)propyl)amino)cyclohexanecarboxylic acid], for which the IC50 under setting [1] is no more than 250 nM.
`CCC(N[C@H]1CC[C@@H](C(=O)O)CC1)c1ccc2ccc(O[C@H]3CC[C@@H](C(F)(F)F)CC3)c(C(F)(F)F)c2c1` (stereo partly drawn) [Example 147, cis-4-((1-(8-(trifluoromethyl)-7-((cis-4-(trifluoromethyl)cyclohexyl)oxy)naphthalen-2-yl)propyl)amino)cyclohexanecarboxylic acid]: under setting [1], the IC50 is no more than 100 nM.
Regarding `CC(C)(C)[C@H]1CC[C@H](Nc2cc3cc(C(=O)NC4CCCC(C(=O)O)C4)ccc3cn2)CC1` (stereo partly drawn) [Example 150, 3-(3-((trans-4-(tert-butyl)cyclohexyl)amino)isoquinoline-6-carboxamido)cyclohexanecarboxylic acid], the half-inhibitory concentration (IC50) under setting [1] is no more than 250 nM.
Turning to `CC(C)(C)[C@H]1CC[C@H](Nc2cc3cc(C(=O)NC45CCC(C(=O)O)(CC4)CC5)ccc3cn2)CC1` [Example 152, 4-(3-((trans-4-(tert-butyl)cyclohexyl)amino)isoquinoline-6-carboxamido)bicyclo[2.2.2]octane-1-carboxylic acid], the IC50 under setting [1] is no more than 100 nM.
As to `CC(C)(C)[C@H]1CC[C@H](Nc2cc3cc(C(=O)N[C@H]4CC[C@@H](C(=O)O)CC4)ccc3cn2)CC1` [Example 154, cis-4-(3-((trans-4-(tert-butyl)cyclohexyl)amino)isoquinoline-6-carboxamido)cyclohexane carboxylic acid], the IC50 under setting [1] is no more than 100 nM.
On to `CC(C)(C)[C@H]1CC[C@H](Nc2cc3cc(C(=O)N[C@H]4CC[C@H](C(=O)O)CC4)ccc3cn2)CC1` [Example 155, trans-4-(3-((trans-4-(tert-butyl)cyclohexyl)amino)isoquinoline-6-carboxamido)cyclohexanecarboxylic acid], for which the IC50 under setting [1] was no more than 100 nM.

For the origin of these results see US10017506B2, “ATX modulating agents” (BIOGEN MA INC., priority 2012, dated 2018).
